The subject of series [1] is differentiated NS5 cells. Briefly: CDg13 staining of differentiated NS5 cells under ABC transporter inhibitors (flow cytometry). Type of series: cell-based, mouse. The settings on record: inhibitor during staining. Here is the method:
Flow cytometry was performed using Attune Cytometer (Invitrogen). Hoechest33342 (2 μM) and CDg13 (1 μM) are incubated with culture media for 1 hours and detached as single cells. The collected cells were suspended in BSA- and FBS-free DMEM to prevent loss of CDg13 signal. The average fluorescence intensity of total cells in each experimental group was analyzed by Attune cytometer software for quantification study.
In general terms: In flow cytometry, cells or beads pass a laser one at a time.

Series [2] in a line: Spectroscopic properties of CF library (absorbance, emission, quantum yield, extinction coefficient). Type of series: physicochemical. The settings on record: 100 μM in ethanol; for QY (Φ): reference fluorescein. As to the method: All the chemicals and solvents were purchased from Sigma Aldrich, Alfa Aesar, Fluka, MERCK, Tocris or Acros, and used without further purification. Normal phase purifications were carried out using Merck Silica Gel 60 (particle size: 0.040-0.063 mm, 230-400 mesh). Analytical characterization was performed on a HPLC-MS (Agilent-1200 series) with a DAD detector and a single quadrupole mass spectrometer (6130 series) with an ESI probe. ^1H-NMR and ^13C-NMR spectra were recorded on Bruker Avance 300 MHz NMR spectrometers, and chemical shifts are expressed in parts per million (ppm) and coupling constants are reported as a J value in Hertz (Hz). High resolution mass spectrometry (HRMS) data was recorded on a Micro mass VG 7035 (Mass Spectrometry Laboratory at National University of Singapore (NUS)). Spectroscopic and quantum yield data were measured on spectroscopic measurements, performed on a fluorometer and UV/VIS instrument, Synergy 4 of Bioteck Company. The slit width was 1 nm for both excitation and emission, and the data analysis was performed using GraphPrism 5.0.

Structures are written as SMILES.

In the case of `CCCN(CCC)S(=O)(=O)c1ccc(C(=O)O)cc1` [probenecid], the “staining of CDg13 versus DMSO control” value in series [1] was “no effect of probe staining”.

For `CCCCNC(=O)c1ccc(-c2c3cc(Cl)c(=O)cc-3oc3cc(O)c(Cl)cc23)cc1` [CF-G7], in series [2], the “Abs (nm)” value was determined as 520 nm, the “Em (nm)” value was 559 nm and the “QY (Φ)” value came out at 0.41.

Take `CCCC(C)NC(=O)c1ccc(-c2c3cc(Cl)c(=O)cc-3oc3cc(O)c(Cl)cc23)cc1` (stereo not shown) [CF-G5]: in series [2], the “Abs (nm)” value is reported as 520 nm, the “Em (nm)” value worked out at 557 nm and the “QY (Φ)” value is 0.38.

Regarding `CCCCCN(CCCCC)C(=O)c1ccc(-c2c3cc(Cl)c(=O)cc-3oc3cc(O)c(Cl)cc23)cc1` [CF-G3], in series [2], the “Abs (nm)” value is 520 nm, the “Em (nm)” value is given as 552 nm and the “QY (Φ)” value was 0.63.

On to `O=C(CCCCc1ccccc1)c1ccc(-c2c3cc(Cl)c(=O)cc-3oc3cc(O)c(Cl)cc23)cc1` [CF-G4], for which, in series [2], the “Abs (nm)” value is recorded as 520 nm, the “Em (nm)” value was 556 nm and the “QY (Φ)” value was found to be 0.40.

As to `CCN(Cc1ccccc1)C(=O)c1ccc(-c2c3cc(Cl)c(=O)cc-3oc3cc(O)c(Cl)cc23)cc1` [CF-D5], in series [2], the “Abs (nm)” value came out at 520 nm, the “Em (nm)” value worked out at 555 nm and the “QY (Φ)” value is listed as 0.66.

With `CC(C)C(C)NC(=O)c1ccc(-c2c3cc(Cl)c(=O)cc-3oc3cc(O)c(Cl)cc23)cc1` (stereo not shown) [CF-E6], in series [2], the “Abs (nm)” value turned out to be 520 nm, the “Em (nm)” value is listed as 557 nm and the “QY (Φ)” value came out at 0.29.

As for `CC(C)N(Cc1ccccc1)C(=O)c1ccc(-c2c3cc(Cl)c(=O)cc-3oc3cc(O)c(Cl)cc23)cc1` [CF-C2], in series [2], the “Abs (nm)” value is 520 nm, the “Em (nm)” value came to 559 nm and the “QY (Φ)” value turned out to be 0.78.

Take `CC(Cc1ccccc1)NC(=O)c1ccc(-c2c3cc(Cl)c(=O)cc-3oc3cc(O)c(Cl)cc23)cc1` (stereo not shown) [CF-A6]: in series [2], the “Abs (nm)” value came out at 520 nm, the “Em (nm)” value came to 557 nm and the “QY (Φ)” value is 0.43.

As to `O=C(c1ccc(-c2c3cc(Cl)c(=O)cc-3oc3cc(O)c(Cl)cc23)cc1)N1CCc2ccccc2C1` [CF-A5], in series [2], the “Abs (nm)” value turned out to be 520 nm, the “Em (nm)” value is listed as 556 nm and the “QY (Φ)” value was determined as 0.75.

As to `O=C(c1ccc(-c2c3cc(Cl)c(=O)cc-3oc3cc(O)c(Cl)cc23)cc1)N1CCCC1` [CF-B7], in series [2], the “Abs (nm)” value is recorded as 520 nm, the “Em (nm)” value was found to be 556 nm and the “QY (Φ)” value amounted to 0.70.

`Cc1ccc(CCNC(=O)c2ccc(-c3c4cc(Cl)c(=O)cc-4oc4cc(O)c(Cl)cc34)cc2)cc1` [CF-C10]: in series [2], the “Abs (nm)” value stood at 520 nm, the “Em (nm)” value was found to be 558 nm and the “QY (Φ)” value is 0.54.

As to `COc1ccc(CCN(C)CCCC(C#N)(c2ccc(OC)c(OC)c2)C(C)C)cc1OC` (stereo not shown) [verapamil], in series [1], the “staining of CDg13 versus DMSO control” value is reported as “no effect of probe staining”.

On to `COc1cc2c(cc1OC)CN(CCc1ccc(NC(=O)c3cccc4c(=O)c5cccc(OC)c5[nH]c34)cc1)CC2` [Elacridar, elacridar], for which, in series [1], the “staining of CDg13 versus DMSO control” value was “around 2.5 fold”.

As to `CC1CCC(NC(=O)c2ccc(-c3c4cc(Cl)c(=O)cc-4oc4cc(O)c(Cl)cc34)cc2)CC1` (stereo not shown) [CF-H5], in series [2], the “Abs (nm)” value is 520 nm, the “Em (nm)” value was found to be 557 nm and the “QY (Φ)” value was found to be 0.67.

Regarding `O=C(NC1CC1)c1ccc(-c2c3cc(Cl)c(=O)cc-3oc3cc(O)c(Cl)cc23)cc1` [CF-B2], in series [2], the “Abs (nm)” value was found to be 520 nm, the “Em (nm)” value is 558 nm and the “QY (Φ)” value is reported as 0.53.

On to `CC1CCCCN1C(=O)c1ccc(-c2c3cc(Cl)c(=O)cc-3oc3cc(O)c(Cl)cc23)cc1` (stereo not shown) [CF-H6], for which, in series [2], the “Abs (nm)” value came to 520 nm, the “Em (nm)” value was determined as 553 nm and the “QY (Φ)” value is 0.65.

Take `CCCCCCCCCCCCN(C)C(=O)c1ccc(-c2c3cc(Cl)c(=O)cc-3oc3cc(O)c(Cl)cc23)cc1` [CF-G2]: in series [2], the “Abs (nm)” value is 520 nm, the “Em (nm)” value was 553 nm and the “QY (Φ)” value is 0.85.

In the case of `CC(C)CCNC(=O)c1ccc(-c2c3cc(Cl)c(=O)cc-3oc3cc(O)c(Cl)cc23)cc1` [CF-C8], in series [2], the “Abs (nm)” value stood at 520 nm, the “Em (nm)” value is 558 nm and the “QY (Φ)” value is on record as 0.68.

Take `CCCN(CC1CC1)C(=O)c1ccc(-c2c3cc(Cl)c(=O)cc-3oc3cc(O)c(Cl)cc23)cc1` [CF-C6]: in series [2], the “Abs (nm)” value amounted to 520 nm, the “Em (nm)” value came out at 554 nm and the “QY (Φ)” value was 0.58.

For the compound `O=C(NC1CCCC1)c1ccc(-c2c3cc(Cl)c(=O)cc-3oc3cc(O)c(Cl)cc23)cc1` [CF-E5], in series [2], the “Abs (nm)” value is 520 nm, the “Em (nm)” value came out at 556 nm and the “QY (Φ)” value worked out at 0.58.

Turning to `CCC(C)(C)NC(=O)c1ccc(-c2c3cc(Cl)c(=O)cc-3oc3cc(O)c(Cl)cc23)cc1` [CF-G11], in series [2], the “Abs (nm)” value was determined as 520 nm, the “Em (nm)” value is 557 nm and the “QY (Φ)” value came out at 0.35.

As for `O=C(NCCc1ccccc1F)c1ccc(-c2c3cc(Cl)c(=O)cc-3oc3cc(O)c(Cl)cc23)cc1` [CF-H7], in series [2], the “Abs (nm)” value is 520 nm, the “Em (nm)” value came to 557 nm and the “QY (Φ)” value was 0.59.

With `CCCCCCCCCCCCCNC(=O)c1ccc(-c2c3cc(Cl)c(=O)cc-3oc3cc(O)c(Cl)cc23)cc1` [CF-A4], in series [2], the “Abs (nm)” value came to 520 nm, the “Em (nm)” value is reported as 558 nm and the “QY (Φ)” value was determined as 0.26.

Take `CN(C)C(=O)CCSC(SCCC(=O)O)c1cccc(/C=C/c2ccc3ccc(Cl)cc3n2)c1` (stereo not shown) [MK571]: the “staining of CDg13 versus DMSO control” value in series [1] is about 1.5 fold.

Turning to `COCCNC(=O)c1ccc(-c2c3cc(Cl)c(=O)cc-3oc3cc(O)c(Cl)cc23)cc1` [CF-B3], in series [2], the “Abs (nm)” value was determined as 520 nm, the “Em (nm)” value came out at 557 nm and the “QY (Φ)” value amounted to 0.32.

Consider `CCC(C)NC(=O)c1ccc(-c2c3cc(Cl)c(=O)cc-3oc3cc(O)c(Cl)cc23)cc1` (stereo not shown) [CF-G8], for which, in series [2], the “Abs (nm)” value stood at 520 nm, the “Em (nm)” value is reported as 556 nm and the “QY (Φ)” value was found to be 0.29.

Take `CC(C)CC(C)NC(=O)c1ccc(-c2c3cc(Cl)c(=O)cc-3oc3cc(O)c(Cl)cc23)cc1` (stereo not shown) [CF-H10]: in series [2], the “Abs (nm)” value came to 520 nm, the “Em (nm)” value was found to be 557 nm and the “QY (Φ)” value is reported as 0.38.

For the compound `O=C(NC1CCCCC1)c1ccc(-c2c3cc(Cl)c(=O)cc-3oc3cc(O)c(Cl)cc23)cc1` [CF-A9], in series [2], the “Abs (nm)” value turned out to be 520 nm, the “Em (nm)” value is on record as 557 nm and the “QY (Φ)” value stood at 0.63.

As to `COc1ccccc1CCNC(=O)c1ccc(-c2c3cc(Cl)c(=O)cc-3oc3cc(O)c(Cl)cc23)cc1` [CF-F8], in series [2], the “Abs (nm)” value is given as 520 nm, the “Em (nm)” value is on record as 559 nm and the “QY (Φ)” value turned out to be 0.34.

On to `O=C(NCc1c(F)cccc1F)c1ccc(-c2c3cc(Cl)c(=O)cc-3oc3cc(O)c(Cl)cc23)cc1` [CF-A7], for which, in series [2], the “Abs (nm)” value was found to be 520 nm, the “Em (nm)” value was determined as 560 nm and the “QY (Φ)” value is given as 0.58.

For the compound `CC1CN(C(=O)c2ccc(-c3c4cc(Cl)c(=O)cc-4oc4cc(O)c(Cl)cc34)cc2)CC(C)O1` (stereo not shown) [CF-D3], in series [2], the “Abs (nm)” value was 520 nm, the “Em (nm)” value is recorded as 555 nm and the “QY (Φ)” value was determined as 0.47.

In the case of `CCCCCCCCNC(=O)c1ccc(-c2c3cc(Cl)c(=O)cc-3oc3cc(O)c(Cl)cc23)cc1` [CF-C3], in series [2], the “Abs (nm)” value was 520 nm, the “Em (nm)” value amounted to 559 nm and the “QY (Φ)” value came out at 0.37.

Take `CN(Cc1ccccc1)C(=O)c1ccc(-c2c3cc(Cl)c(=O)cc-3oc3cc(O)c(Cl)cc23)cc1` [CF-B6]: in series [2], the “Abs (nm)” value amounted to 520 nm, the “Em (nm)” value stood at 558 nm and the “QY (Φ)” value was found to be 0.77.
